Columns and labels:
SCC4 cells = experiment: MTS cell proliferation assay; assay type: cell-based, human; settings: vitamin D resistant SCC4 cells, Figures 7c, 8 and 9
Description: Dose-dependent effects of compounds on cell cycle progression was monitored using a CellTiter 96 Aqueous Non-Radioactive Cell Proliferation Assay Kit (Promega). The assay composed of solutions of a novel tetrazolium compound (MTS) and an electron coupling reagent (phenazine methosulfate; PMS). MTS is reduced by metabolically active cells into a soluble formazan product that absorbs at 490nm. The quantity of formazan product absorbing at 490nm is directly proportional to the number of living cells.

CCRF-CEM = experiment: NCI 60 cell panel
SR = experiment: NCI 60 cell panel
A549/A/TCC = experiment: NCI 60 cell panel
NCI-H460 = experiment: NCI 60 cell panel
COLO 205 = experiment: NCI 60 cell panel
HCT-116 = experiment: NCI 60 cell panel
HCT-15 = experiment: NCI 60 cell panel
SF-268 = experiment: NCI 60 cell panel
SF-539 = experiment: NCI 60 cell panel
SNB-19 = experiment: NCI 60 cell panel
SNB-75 = experiment: NCI 60 cell panel
U251 = experiment: NCI 60 cell panel
M14 = experiment: NCI 60 cell panel
SK-MEL-28 = experiment: NCI 60 cell panel
UACC-62 = experiment: NCI 60 cell panel
OVCAR-4 = experiment: NCI 60 cell panel
OVCAR-5 = experiment: NCI 60 cell panel
NCI/ADR-RES = experiment: NCI 60 cell panel
786-0 = experiment: NCI 60 cell panel
A498 = experiment: NCI 60 cell panel
TK-10 = experiment: NCI 60 cell panel
MDA-MB-231/ATCC = experiment: NCI 60 cell panel
BT-549 = experiment: NCI 60 cell panel
MDA-MB-468 = experiment: NCI 60 cell panel
AT84 cells = experiment: EdU cell growth assay; settings: AT84 cells
Description: EdU cell growth assay. Click-iT EdU Alexa Fluor high-throughput imaging (HCS) assay for cell proliferation. HCS assays were performed on AT84 mouse squamous carcinoma cell line (ATCC) following the manufacturer's instruction (Molecular Probes, Invitrogen). […] All samples were in triplicate.

CCC(CC)(c1ccc(OCC(=O)NO)c(C)c1)c1ccc(OCC(O)C(C)(C)C)c(C)c1 (racemic) [JF-B01, N-Hydroxy-2-(4-(3-(4-(2-hydroxy-3,3-dimethylbutoxy)-3-methylphenyl)pentan-3-yl)-2-methylphenoxy)acetamide]
antiproliferative potency (SCC4 cells): low micromolar potency | GI50 (CCRF-CEM; Homo sapiens): 0.576 µM | CC50 (CCRF-CEM; Homo sapiens, read-out: LC50): 42.2 µM | TGI (CCRF-CEM; Leukemia): 4.80E-6 | GI50 (SR; Homo sapiens): 1.21 µM | CC50 (SR; Homo sapiens, read-out: LC50): 24.9 µM | TGI (SR; Leukemia): 3.91E-6 | GI50 (A549/A/TCC; Homo sapiens, A549): 3.62 µM | CC50 (A549/A/TCC; Homo sapiens, A549, read-out: LC50): 40.8 µM | TGI (A549/A/TCC; Non-Small Cell Lung Cancer, A549/A/TCC): 1.43E-5 | GI50 (NCI-H460; Homo sapiens, NCI-H460): 1.6 µM | CC50 (NCI-H460; Homo sapiens, NCI-H460, read-out: LC50): 9.51 µM | TGI (NCI-H460; Non-Small Cell Lung Cancer, NCI-H460): 3.90E-6 | TGI (COLO 205; Colon Cancer, COLO 205): 5.94E-6 | GI50 (COLO 205; Homo sapiens, COLO 205): 2.33 µM | CC50 (COLO 205; Homo sapiens, COLO 205, read-out: LC50): 20.3 µM | TGI (HCT-116; Colon Cancer, HCT-116): 1.09E-5 | GI50 (HCT-116; Homo sapiens, HCT-116): 2.13 µM | CC50 (HCT-116; Homo sapiens, HCT-116, read-out: LC50): 33.4 µM | TGI (HCT-15; Colon Cancer, HCT-15): 1.12E-5 | GI50 (HCT-15; Homo sapiens, HCT-15): 1.94 µM | CC50 (HCT-15; Homo sapiens, HCT-15, read-out: LC50): 33.6 µM | TGI (SF-268; CNS Cancer, SF-268): 1.06E-5 | GI50 (SF-268; Homo sapiens, SF-268): 2.26 µM | CC50 (SF-268; Homo sapiens, SF-268, read-out: LC50): 34.6 µM | TGI (SF-539; CNS Cancer, SF-539): 2.74E-5 | GI50 (SF-539; Homo sapiens, SF-539): 13.7 µM | CC50 (SF-539; Homo sapiens, SF-539, read-out: LC50): 54.9 µM | TGI (SNB-19; CNS Cancer, SNB-19): 1.12E-5 | GI50 (SNB-19; Homo sapiens, SNB-19): 2.41 µM | CC50 (SNB-19; Homo sapiens, SNB-19, read-out: LC50): 33.5 µM | TGI (SNB-75; CNS Cancer, SNB-75): 1.90E-5 | GI50 (SNB-75; Homo sapiens, SNB-75): 0.0482 µM | CC50 (SNB-75; Homo sapiens, SNB-75, read-out: LC50): 62 µM | TGI (U251; CNS Cancer, U251): 1.23E-5 | GI50 (U251; Homo sapiens, U-251): 2.34 µM | CC50 (U251; Homo sapiens, U-251, read-out: LC50): 40 µM | GI50 (M14; Homo sapiens, M14): 2.3 µM | CC50 (M14; Homo sapiens, M14, read-out: LC50): 16.5 µM | TGI (M14; Melanoma, M14): 5.33E-6 | GI50 (SK-MEL-28; Homo sapiens, SK-MEL-28): 4.75 µM | CC50 (SK-MEL-28; Homo sapiens, SK-MEL-28, read-out: LC50): 42.5 µM | TGI (SK-MEL-28; Melanoma, SK-MEL-28): 1.75E-5 | GI50 (UACC-62; Homo sapiens, UACC-62): 1.68 µM | CC50 (UACC-62; Homo sapiens, UACC-62, read-out: LC50): 11.5 µM | TGI (UACC-62; Melanoma, UACC-62): 4.22E-6 | GI50 (OVCAR-4; Homo sapiens, OVCAR-4): 1.88 µM | CC50 (OVCAR-4; Homo sapiens, OVCAR-4, read-out: LC50): 32 µM | TGI (OVCAR-4; Ovarian Cancer, OVCAR-4): 9.44E-6 | GI50 (OVCAR-5; Homo sapiens, OVCAR-5): 12.9 µM | CC50 (OVCAR-5; Homo sapiens, OVCAR-5, read-out: LC50): 50.6 µM | TGI (OVCAR-5; Ovarian Cancer, OVCAR-5): 2.56E-5 | GI50 (NCI/ADR-RES; Homo sapiens): 4.39 µM | CC50 (NCI/ADR-RES; Homo sapiens, read-out: LC50): 41.9 µM | TGI (NCI/ADR-RES; Ovarian Cancer): 1.67E-5 | GI50 (786-0; Homo sapiens, 786-0): 11.3 µM | CC50 (786-0; Homo sapiens, 786-0, read-out: LC50): 51.3 µM | TGI (786-0; Renal Cancer, 786-0): 2.41E-5 | GI50 (A498; Homo sapiens, A498): 4.56 µM | CC50 (A498; Homo sapiens, A498, read-out: LC50): 45.6 µM | TGI (A498; Renal Cancer, A498): 2.08E-5 | GI50 (TK-10; Homo sapiens, TK-10): 2.83 µM | CC50 (TK-10; Homo sapiens, TK-10, read-out: LC50): 42.8 µM | TGI (TK-10; Renal Cancer, TK-10): 1.60E-5 | TGI (MDA-MB-231/ATCC; Breast Cancer, MDA-MB-231/ATCC): 8.45E-6 | GI50 (MDA-MB-231/ATCC; Homo sapiens, MDA-MB-231): 2.18 µM | CC50 (MDA-MB-231/ATCC; Homo sapiens, MDA-MB-231, read-out: LC50): 31.6 µM | TGI (BT-549; Breast Cancer, BT-549): 7.74E-6 | GI50 (BT-549; Homo sapiens, BT-549): 2.03 µM | CC50 (BT-549; Homo sapiens, BT-549, read-out: LC50): 28.5 µM | TGI (MDA-MB-468; Breast Cancer, MDA-MB-468): 3.53E-6 | GI50 (MDA-MB-468; Homo sapiens, MDA-MB-468): 1.57 µM | CC50 (MDA-MB-468; Homo sapiens, MDA-MB-468, read-out: LC50): 7.92 µM | antiproliferative potency, fold less potent than 1,25D (AT84 cells): 10 fold

From EP2794556B1, “BIS-(ARYL/HETEROARYL)-METHYLENE COMPOUNDS, PHARMACEUTICAL COMPOSITIONS CONTAINING SAME AND THEIR USE FOR TREATING CANCER” (Gleason, James L., priority 2011, dated 2013)
